Reference: EP4793271A1, “NEUROPROTECTIVE AGENT” (National Center of Neurology and Psychiatry, priority 2023, dated 2025)

Columns and labels:
[1] = tested on: primary cultured cells of mouse fetus-derived dorsal root ganglia (DRGs); experiment: Suppression of axonal degeneration after axotomy in DRG explant culture; type: cell-based; settings: minimum concentration at which axonal degeneration was suppressed (DI 0.3 or less), 24 hours after axotomy; for minimal effective concentration: Mus musculus, read-out: Evaluation on protection against degeneration
Summary of the method: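 Embryonic ICR mouse DRG explants were cultured 7–8 days in nicotinamide-free neuronal medium with NGF, then axotomized by removing the cell bodies. Compound (100 pM–10 µM final, 0.1% DMSO) was added within 30 min, and neurites were imaged 24 h later. The result is the lowest concentration giving degeneration index ≤0.3.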

[2] = target: T1, nicotinamide phosphoribosyl transferase (NAMPT) (Homo sapiens, UniProt P43490); experiment: NAMPT activity measurement (NMN fluorescence detection); type: biochemical; settings: NAMPT recombinant protein, 10 µM Nam; for IC50: read-out: Evaluation on NAMPT inhibitory
T1 construct: purchased Medical & Biological Laboratories Co., Ltd. (MBL)
Procedure: The compound of the present invention was evaluated for the ability to influence the activity of nicotinamide phosphoribosyl transferase (NAMPT) which is an enzyme that metabolizes nicotinamide (Nam), not the target SARM1.
The enzymatic reaction of NAMPT was carried out by adding NAMPT recombinant protein (manufactured by Medical & Biological Laboratories Co., Ltd. (MBL)) to a reaction solution containing the substrate Nam, phosphoribosylpyrophosphate (PRPP), ATP, and the like (composition: […] (pH = 7.4), 2 µM ATP, 0.5 µM PRPP, 0.02% BSA, 2 µM DTT, 1.2 µM MgCl2, and 10 µM Nam). The amount of the reaction product NMN was detected by detecting the fluorescent signal of a fluorescent substance obtained through the reaction of 2-acetylbenzofuran with NMN using SpectraMax M2 (Molecular Devices) (excitation: 421 nm, fluorescence: 480 nm) (Moriya et al, Chemical Communications 2013, 49 11500). The test compound was added at final concentrations of 10 µM, 3 µM, 1 µM, 300 nM, 100 nM, 30 nM, 10 nM, and 3 nM to the NMN synthesis reaction system described above. The NMN-derived fluorescent signal was normalized against a control group and plotted as the function of the test compound concentrations, and the compound was evaluated for its NAMPT inhibitory effect by calculating IC50.
The IC50 value was evaluated as ∘ for ≥1 µM and as Δ for ≥0.1 µM.

hSARM1 = target: T2, hSARM1 (Homo sapiens, UniProt Q6SZW1); experiment: Human SARM1 activity measurement in HEK293 cells transiently transfected with ΔN-hSARM1 (PC6 fluorescent probe); type: cell-based; set-up: expressed in transfected cells; host or cells: HEK293, pcDNA3 expression vector; settings: inhibition rate; compound 30 µM; PC6 50 µM; HEK293 cells expressing ΔN-hSARM1; approximately 48 hours from transfection; read-out: Evaluation on hSARM1 inhibitory
T2 sequence (Q6SZW1 28-724): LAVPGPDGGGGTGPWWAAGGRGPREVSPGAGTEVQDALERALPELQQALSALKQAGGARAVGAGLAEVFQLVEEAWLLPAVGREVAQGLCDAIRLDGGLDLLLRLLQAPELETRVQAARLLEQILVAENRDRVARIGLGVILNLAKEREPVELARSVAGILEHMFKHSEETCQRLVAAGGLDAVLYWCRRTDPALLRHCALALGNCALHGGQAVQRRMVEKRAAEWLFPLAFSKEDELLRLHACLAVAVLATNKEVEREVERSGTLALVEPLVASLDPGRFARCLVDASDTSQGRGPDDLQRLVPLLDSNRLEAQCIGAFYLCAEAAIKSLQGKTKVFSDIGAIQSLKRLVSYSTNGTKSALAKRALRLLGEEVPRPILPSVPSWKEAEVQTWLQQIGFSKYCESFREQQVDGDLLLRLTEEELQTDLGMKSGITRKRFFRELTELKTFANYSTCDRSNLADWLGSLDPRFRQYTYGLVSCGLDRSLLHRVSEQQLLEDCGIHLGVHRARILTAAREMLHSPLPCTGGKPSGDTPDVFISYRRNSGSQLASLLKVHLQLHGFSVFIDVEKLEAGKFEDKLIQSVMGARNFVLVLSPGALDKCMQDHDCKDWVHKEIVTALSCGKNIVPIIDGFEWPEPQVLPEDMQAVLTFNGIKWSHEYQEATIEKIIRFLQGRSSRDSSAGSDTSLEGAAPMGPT
Summary of the method: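 HEK293 cells in nicotinamide-free DMEM with 5 μM nicotinamide, transiently transfected with mitochondrial-targeting-deleted ΔN-hSARM1; PC6 base-exchange fluorescent probe (50 μM) plus compound (30 μM) added ~8 h post-transfection. Fluorescence (ex 405/em 525 nm) read ~48 h from transfection; inhibition % versus transfected DMSO control, untransfected background subtracted.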

T1 sequence (P43490 whole entry, species assumed): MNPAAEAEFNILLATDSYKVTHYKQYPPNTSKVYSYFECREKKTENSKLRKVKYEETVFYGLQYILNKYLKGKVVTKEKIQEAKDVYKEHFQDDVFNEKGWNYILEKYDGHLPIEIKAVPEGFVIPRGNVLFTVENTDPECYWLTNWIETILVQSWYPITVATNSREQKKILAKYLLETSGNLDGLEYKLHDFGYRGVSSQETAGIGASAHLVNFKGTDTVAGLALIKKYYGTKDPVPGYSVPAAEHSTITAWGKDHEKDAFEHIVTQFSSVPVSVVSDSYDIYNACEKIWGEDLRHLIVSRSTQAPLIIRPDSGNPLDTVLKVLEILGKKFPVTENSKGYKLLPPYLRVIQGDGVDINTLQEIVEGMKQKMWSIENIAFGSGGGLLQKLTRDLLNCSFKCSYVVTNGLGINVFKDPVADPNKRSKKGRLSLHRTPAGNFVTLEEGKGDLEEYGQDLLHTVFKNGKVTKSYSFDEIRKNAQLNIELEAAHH

| Structure (SMILES) | minimal effective concentration [1] [µM] | Evaluation on NAMPT inhibitory [2] | inhibition at 30 µM (hSARM1) [%] | IC50 [2] [nM] | Evaluation on protection against degeneration [1] |
| --- | --- | --- | --- | --- | --- |
| O=C(NCc1ccc(NC(=O)c2ccccc2)nc1)c1cnc2ccccc2c1 [Compound 140] | 0.1 to 1 | ○ | > 10 | – | – |
| Cc1ccc(CC(=O)Nc2ccc(CNC(=O)c3cccnc3)cn2)cc1 [Compound 143] | ≤ 0.01 | – | > 75 | ≥ 100 | – |
| O=C(Cc1ccc(F)cc1)Nc1ccc(CNC(=O)c2cccnc2)cn1 [Compound 144] | ≤ 0.01 | – | > 75 | ≥ 100 | – |
| O=C(NCc1ccc(CNC(=O)c2cccnc2)nc1)c1cccnc1 [Compound 146] | 0.01 to 0.1 | ○ | > 50 | – | – |
| O=C(NCc1cccc(CNC(=O)c2cccnc2)n1)c1ccccc1 [Compound 149] | 0.1 to 1 | ○ | > 25 | – | – |
| O=C(NCc1cccc(CNC(=O)c2cccnc2)n1)c1cccnc1 [Compound 150] | 0.1 to 1 | ○ | > 25 | – | – |
| O=C(NCc1cccc(CNC(=O)c2cccnc2)n1)c1ccncc1 [Compound 151] | 0.1 to 1 | ○ | > 25 | – | – |
| O=C(NCc1ccc(CNC(=O)c2ccccc2)nc1)c1cccnc1 [Compound 153] | 0.01 to 0.1 | ○ | > 75 | – | – |
| N#Cc1ccc(CC(=O)Nc2ccc(CNC(=O)c3cccnc3)cn2)cc1 [Compound 154] | ≤ 0.01 | – | > 75 | ≥ 100 | – |
| CCCC(=O)Nc1ccc(CNC(=O)c2cccnc2)cn1 [Compound 158] | ≤ 0.01 | ○ | > 25 | – | – |
| CCCCC(=O)Nc1ccc(CNC(=O)c2cccnc2)cn1 [Compound 159] | ≤ 0.01 | ○ | > 50 | – | – |
| CCCCCC(=O)Nc1ccc(CNC(=O)c2cccnc2)cn1 [Compound 160] | ≤ 0.01 | – | > 75 | ≥ 100 | – |
| CCC(C)C(=O)Nc1ccc(CNC(=O)c2cccnc2)cn1 (stereo not drawn) [Compound 161] | ≤ 0.01 | ○ | > 10 | – | – |
| CC(C)CC(=O)Nc1ccc(CNC(=O)c2cccnc2)cn1 [Compound 162] | ≤ 0.01 | ○ | > 25 | – | – |
| CCC(CC)C(=O)Nc1ccc(CNC(=O)c2cccnc2)cn1 [Compound 163] | – | ○ | > 25 | – | A (A ≤ 0.01 µM) |
| CC(C)CCC(=O)Nc1ccc(CNC(=O)c2cccnc2)cn1 [Compound 164] | ≤ 0.01 | – | > 75 | ≥ 100 | – |
| CCC(C)CC(=O)Nc1ccc(CNC(=O)c2cccnc2)cn1 (stereo not drawn) [Compound 165] | ≤ 0.01 | ○ | > 75 | – | – |
| N#Cc1ccc(/C=C/C(=O)Nc2ccc(CNC(=O)c3cccnc3)cn2)cc1 [Compound 166] | ≤ 0.01 | ○ | > 75 | – | – |
| O=C(/C=C/c1ccc(C(F)(F)F)cc1)Nc1ccc(CNC(=O)c2cccnc2)cn1 [Compound 167] | ≤ 0.01 | ○ | > 75 | – | – |

| Structure (SMILES) | minimal effective concentration [1] [µM] | Evaluation on NAMPT inhibitory [2] | inhibition at 30 µM (hSARM1) [%] | IC50 [2] [nM] | Evaluation on protection against degeneration [1] |
| --- | --- | --- | --- | --- | --- |
| O=C(/C=C/c1ccc(OC(F)(F)F)cc1)Nc1ccc(CNC(=O)c2cccnc2)cn1 [Compound 168] | ≤ 0.01 | ○ | > 50 | – | – |
| O=C(CCc1ccc(C(F)(F)F)cc1)Nc1ccc(CNC(=O)c2cccnc2)cn1 [Compound 169] | ≤ 0.01 | ○ | > 75 | – | – |
| CCCCC(=O)N(C(=O)CCCC)c1ccc(CNC(=O)c2cccnc2)cn1 [Compound 171] | ≤ 0.01 | ○ | > 50 | – | – |
| CC(C)C(=O)N(C(=O)C(C)C)c1ccc(CNC(=O)c2cccnc2)cn1 [Compound 172] | ≤ 0.01 | ○ | > 10 | – | – |
| N#Cc1ccc(CCC(=O)Nc2ccc(CNC(=O)c3cccnc3)cn2)cc1 [Compound 173] | 0.01 to 0.1 | ○ | > 75 | – | – |
| N#Cc1ccc(OCC(=O)Nc2ccc(CNC(=O)c3cccnc3)cn2)cc1 [Compound 174] | 0.01 to 0.1 | – | > 75 | ≥ 100 | – |
| O=C(COc1cccc(C(F)(F)F)c1)Nc1ccc(CNC(=O)c2cccnc2)cn1 [Compound 175] | 0.01 to 0.1 | – | > 75 | ≥ 100 | – |
| O=C(COc1ccc(C(F)(F)F)cc1)Nc1ccc(CNC(=O)c2cccnc2)cn1 [Compound 176] | 0.01 to 0.1 | – | > 75 | ≥ 100 | – |
| O=C(Cc1ccc(OCc2ccccc2)cc1)Nc1ccc(CNC(=O)c2cccnc2)cn1 [Compound 177] | 0.01 to 0.1 | – | > 75 | ≥ 100 | – |
| O=C(COc1ccc(OCc2ccccc2)cc1)Nc1ccc(CNC(=O)c2cccnc2)cn1 [Compound 178] | 0.01 to 0.1 | – | > 75 | ≥ 100 | – |
| Cc1ccc(/C=C/C(=O)Nc2ccc(CNC(=O)c3cccnc3)cn2)cc1 [Compound 179] | ≤ 0.01 | ○ | > 75 | – | – |
| COc1ccc(/C=C/C(=O)Nc2ccc(CNC(=O)c3cccnc3)cn2)cc1 [Compound 180] | ≤ 0.01 | – | > 75 | ≥ 100 | – |
| CC(C)(C)CC(=O)Nc1ccc(CNC(=O)c2cccnc2)cn1 [Compound 182] | ≤ 0.01 | – | > 75 | ≥ 100 | – |
| CC#CC(=O)Nc1ccc(CNC(=O)c2cccnc2)cn1 [Compound 183] | 0.01 to 0.1 | – | > 50 | ≥ 100 | – |
| O=C(C#Cc1ccccc1)Nc1ccc(CNC(=O)c2cccnc2)cn1 [Compound 184] | 0.01 to 0.1 | ○ | > 50 | – | – |
| O=C(NCCCOCCOCCCNC(=O)c1cnc2ccccc2c1)c1cccnc1 [Compound 185] | 0.1 to 1 | ○ | > 25 | – | – |
| O=C(NCCCOCCOCCCNC(=O)c1cccnc1)c1ccccc1 [Compound 186] | 0.01 to 0.1 | ○ | > 25 | – | – |
| O=C(NCCCOCCOCCCNC(=O)c1ccc2ccccc2c1)c1cccnc1 [Compound 187] | – | ○ | > 25 | – | C (0.1 µM < C ≤ 1 µM) |
